ChEMBL document CHEMBL1201862, “PubChem BioAssay data set” (2004)
Calls of active or inactive are those of the source.

Columns and labels:
[1] = cells; assay type: functional, cell-based
[2] = biological target: T1, Trace amine-associated receptor 1 (Homo sapiens, UniProt Q96RJ0); assay: Counterscreen for agonists of the human trace amine associated receptor 1 (hTAAR1): Fluorescence-based cell-based high throughput dose response assay to identify hTAAR1 agonist that also desensitize TAAR1 receptor response.; assay type: functional
T1 sequence (Q96RJ0 whole entry): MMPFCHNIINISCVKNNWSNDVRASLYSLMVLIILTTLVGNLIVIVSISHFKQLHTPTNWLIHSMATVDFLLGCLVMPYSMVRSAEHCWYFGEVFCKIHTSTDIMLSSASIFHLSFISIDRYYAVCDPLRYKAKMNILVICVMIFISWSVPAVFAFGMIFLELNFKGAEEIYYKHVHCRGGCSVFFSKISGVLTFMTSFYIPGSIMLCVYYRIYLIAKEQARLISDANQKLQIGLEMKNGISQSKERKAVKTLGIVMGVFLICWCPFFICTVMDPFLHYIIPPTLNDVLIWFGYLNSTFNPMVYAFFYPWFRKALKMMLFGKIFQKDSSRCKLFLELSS

[3] = biological target: T1, Trace amine-associated receptor 1; assay: Fluorescence-based cell-based high throughput dose response assay to identify agonists of the human trace amine associated receptor 1 (TAAR1).; assay type: functional
[4] = cells; assay type: functional, cell-based; remark: listed apart in the source
[5] = biological target: Genome polyprotein (dengue virus type 2, UniProt P29990); assay: flavivirus cap methylation enzyme inhibition – biochemical, confirmation dose response, primary screen (AID 588689); assay type: functional
[6] = blockers of HIV-1 envelope-mediated cell-cell fusion – cherry-pick, dose response (AID 652057); assay type: functional, cell-based
[7] = off-target signal loss in HeLa-CEM21 co-culture – HeLa F-luc CTL cells, cherry-picked, counter-screen for HIV-1 Env fusion inhibitor project, dose response (AID 652040); assay type: functional, cell-based;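 note: potency for signal decrease marking cytotoxic or nonspecific inhibition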
[8] = blockers of HIV-1 ZM109 envelope-driven cell-cell fusion – HeLa effector, CEM target cells, luciferase, cherry-pick, dose response (AID 652058); assay type: functional, cell-based;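 note: luciferase signal from HIV-1 Env mediated cell-cell fusion of effector and target cells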
[9] = HIV-1 AD8 envelope cell-cell fusion blockers – cherry-pick, dose response (AID 652062); assay type: functional, cell-based;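 note: luciferase signal from cell-cell fusion driven by HIV-1 clade B AD8 Env; potency is for inhibitors of fusion seen as a drop in luminescence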
[10] = test system: BJ; assay: BJ-TERT-LT-ST fibroblast viability loss – cell-based, RAS-independent, luminescence, dose response (AID 1935); assay type: functional, Homo sapiens; conditions: Homo sapiens, BJ;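 note: BJ fibroblasts immortalized with TERT plus LT and ST oncogenes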
[11] = Trypanosoma cruzi growth suppression in host cells – NIH3T3 host cells, beta-gal luminescence, confirmation (AID 2044); assay type: functional, cell-based;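 note: intracellular parasites grown in NIH/3T3 mouse fibroblasts as host cells; luminescent beta-galactosidase reporter signal from transgenic T. cruzi replicating inside host cells; inhibitors lower the luminescence signal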
[12] = DRD fibroblast viability loss – cell-based, non-viral oncogenic, luminescence, dose response (AID 1934); assay type: functional; conditions: Homo sapiens
[13] = test system: BJ; assay: cells; assay type: functional, cell-based, Homo sapiens; conditions: Homo sapiens, BJ
[14] = biological target: T2, Protein RecA (Mycobacterium tuberculosis, UniProt P9WHJ3); assay: Fluorescence Cell-Free Homogeneous Dose Retest to Identify Inhibitors of RecA-Intein Splicing Activity. [Related pubchem assays (depositor defined):AID2097, AID2223, AID489010, AID492950]; assay type: functional
T2 sequence (P9WHJ3 whole entry): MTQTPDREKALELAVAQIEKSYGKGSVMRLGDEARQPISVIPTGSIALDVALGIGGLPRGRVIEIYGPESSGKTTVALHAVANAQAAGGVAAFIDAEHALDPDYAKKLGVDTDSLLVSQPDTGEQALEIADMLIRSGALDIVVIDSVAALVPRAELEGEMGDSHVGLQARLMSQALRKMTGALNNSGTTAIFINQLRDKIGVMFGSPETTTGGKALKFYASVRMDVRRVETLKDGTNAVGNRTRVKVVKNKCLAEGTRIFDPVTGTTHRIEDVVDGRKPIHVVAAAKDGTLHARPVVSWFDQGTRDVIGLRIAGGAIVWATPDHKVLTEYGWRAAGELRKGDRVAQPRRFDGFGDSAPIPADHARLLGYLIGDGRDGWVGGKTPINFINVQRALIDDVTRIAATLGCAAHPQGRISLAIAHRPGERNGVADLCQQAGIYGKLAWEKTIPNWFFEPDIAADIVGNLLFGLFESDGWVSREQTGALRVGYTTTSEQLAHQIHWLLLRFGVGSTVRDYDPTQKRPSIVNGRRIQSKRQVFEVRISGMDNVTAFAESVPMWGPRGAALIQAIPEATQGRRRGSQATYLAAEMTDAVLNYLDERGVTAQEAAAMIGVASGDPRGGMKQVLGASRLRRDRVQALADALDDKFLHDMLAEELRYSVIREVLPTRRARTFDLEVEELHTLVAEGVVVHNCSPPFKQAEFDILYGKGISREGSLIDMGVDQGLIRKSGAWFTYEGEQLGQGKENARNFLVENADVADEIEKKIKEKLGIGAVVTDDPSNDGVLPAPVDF

[15] = biological target: Glucose-6-phosphate 1-dehydrogenase (Homo sapiens, UniProt P11413); assay: inhibition of Homo sapiens G6PD, dose series – biochemical, fluorescence, selectivity assay for P. falciparum G6PD inhibitor project, dose response (AID 504792); assay type: functional
[16] = test system: BJ; assay: BJ-TERT fibroblast viability loss – cell-based, RAS-independent, luminescence, dose response (AID 1933); assay type: functional, Homo sapiens; conditions: Homo sapiens, BJ
[17] = NIH3T3 cell viability loss – ATP luminescence, mouse fibroblasts, counter-screen, dose response (AID 2010); assay type: functional, cell-based;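 note: cells exposed to compound for about 90 hours before reading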
[18] = biological target: T3, Replicative DNA helicase DnaB (Mycobacterium tuberculosis, UniProt P9WMR3); assay: DnaB intein splicing inhibitors, dose response, biochemical, cell-free fluorescence (AID 449749); assay type: functional
T3 sequence (P9WMR3 whole entry): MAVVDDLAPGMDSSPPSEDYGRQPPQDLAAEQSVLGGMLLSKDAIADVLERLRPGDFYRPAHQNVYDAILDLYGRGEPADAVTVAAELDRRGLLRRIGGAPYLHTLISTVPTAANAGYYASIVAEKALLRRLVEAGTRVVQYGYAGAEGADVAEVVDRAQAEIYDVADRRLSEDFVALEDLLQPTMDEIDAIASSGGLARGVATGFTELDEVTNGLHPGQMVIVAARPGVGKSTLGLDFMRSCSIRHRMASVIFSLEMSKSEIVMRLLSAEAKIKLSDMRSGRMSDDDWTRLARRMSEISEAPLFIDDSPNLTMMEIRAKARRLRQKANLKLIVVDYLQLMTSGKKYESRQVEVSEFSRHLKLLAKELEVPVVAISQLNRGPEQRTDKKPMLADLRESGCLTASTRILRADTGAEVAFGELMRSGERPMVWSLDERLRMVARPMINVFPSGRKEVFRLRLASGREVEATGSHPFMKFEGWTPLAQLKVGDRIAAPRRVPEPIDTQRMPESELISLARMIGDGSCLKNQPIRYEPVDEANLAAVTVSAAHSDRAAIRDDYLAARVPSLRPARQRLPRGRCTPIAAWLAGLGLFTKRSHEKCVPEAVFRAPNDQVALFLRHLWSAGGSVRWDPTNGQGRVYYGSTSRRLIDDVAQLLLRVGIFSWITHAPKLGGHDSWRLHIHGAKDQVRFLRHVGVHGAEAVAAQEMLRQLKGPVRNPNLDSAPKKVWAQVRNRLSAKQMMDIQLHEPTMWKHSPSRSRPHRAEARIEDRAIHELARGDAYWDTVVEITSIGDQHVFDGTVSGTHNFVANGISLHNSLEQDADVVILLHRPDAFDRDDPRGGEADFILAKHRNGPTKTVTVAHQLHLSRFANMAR

[19] = biological target: T4, Heat shock factor protein 1 (Mus musculus, UniProt P38532); assay: enhancement of HSF1-driven luciferase signal – cell-based, NIH3T3, luminescence, dose retest, confirmation (AID 435004); assay type: functional;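 note: stress induced by proteasome inhibitor MG132 added 30 min after compound; luciferase reporter driven by HSF1 response element in NIH3T3 cells; actives raise luminescence as potentiators of the MG132 stress response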
T4 sequence (P38532 whole entry): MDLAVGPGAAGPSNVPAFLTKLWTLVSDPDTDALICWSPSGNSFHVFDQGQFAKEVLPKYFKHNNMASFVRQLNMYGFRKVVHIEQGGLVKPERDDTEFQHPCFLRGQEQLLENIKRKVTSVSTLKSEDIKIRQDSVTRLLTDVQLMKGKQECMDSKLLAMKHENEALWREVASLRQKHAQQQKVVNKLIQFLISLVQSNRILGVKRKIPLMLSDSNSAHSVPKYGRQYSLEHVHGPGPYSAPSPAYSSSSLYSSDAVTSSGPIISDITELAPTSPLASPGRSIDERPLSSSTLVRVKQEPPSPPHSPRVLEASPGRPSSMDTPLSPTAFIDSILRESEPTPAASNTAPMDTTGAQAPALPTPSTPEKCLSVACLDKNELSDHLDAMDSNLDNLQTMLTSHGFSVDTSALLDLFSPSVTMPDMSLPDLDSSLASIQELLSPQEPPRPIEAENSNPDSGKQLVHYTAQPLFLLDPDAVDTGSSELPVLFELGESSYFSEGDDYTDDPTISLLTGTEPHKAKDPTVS

Genome polyprotein, sequence (P29990 2492-3391 limits assumed): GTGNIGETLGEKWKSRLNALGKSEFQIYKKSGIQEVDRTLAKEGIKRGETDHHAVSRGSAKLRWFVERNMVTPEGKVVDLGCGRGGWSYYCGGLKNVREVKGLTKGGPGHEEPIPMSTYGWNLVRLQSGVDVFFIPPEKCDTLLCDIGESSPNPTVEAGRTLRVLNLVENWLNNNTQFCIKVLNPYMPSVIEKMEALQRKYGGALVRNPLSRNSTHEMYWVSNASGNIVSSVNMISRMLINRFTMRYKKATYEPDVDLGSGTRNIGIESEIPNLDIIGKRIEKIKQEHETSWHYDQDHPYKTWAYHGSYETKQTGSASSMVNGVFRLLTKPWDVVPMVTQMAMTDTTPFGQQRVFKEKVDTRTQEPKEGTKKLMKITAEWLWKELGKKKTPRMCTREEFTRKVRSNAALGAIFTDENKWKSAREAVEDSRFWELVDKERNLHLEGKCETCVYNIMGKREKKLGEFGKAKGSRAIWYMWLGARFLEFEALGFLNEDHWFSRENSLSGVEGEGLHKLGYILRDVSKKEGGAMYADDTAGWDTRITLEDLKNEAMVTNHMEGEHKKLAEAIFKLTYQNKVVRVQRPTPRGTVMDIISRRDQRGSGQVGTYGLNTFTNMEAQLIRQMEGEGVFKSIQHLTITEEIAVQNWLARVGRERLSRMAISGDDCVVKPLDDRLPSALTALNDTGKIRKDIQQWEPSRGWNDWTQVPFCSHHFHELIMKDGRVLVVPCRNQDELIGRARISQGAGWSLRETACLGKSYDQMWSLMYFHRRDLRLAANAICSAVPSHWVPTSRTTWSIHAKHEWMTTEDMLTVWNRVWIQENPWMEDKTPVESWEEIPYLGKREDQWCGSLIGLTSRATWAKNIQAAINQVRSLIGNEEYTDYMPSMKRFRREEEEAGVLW
Glucose-6-phosphate 1-dehydrogenase, sequence (P11413 whole entry): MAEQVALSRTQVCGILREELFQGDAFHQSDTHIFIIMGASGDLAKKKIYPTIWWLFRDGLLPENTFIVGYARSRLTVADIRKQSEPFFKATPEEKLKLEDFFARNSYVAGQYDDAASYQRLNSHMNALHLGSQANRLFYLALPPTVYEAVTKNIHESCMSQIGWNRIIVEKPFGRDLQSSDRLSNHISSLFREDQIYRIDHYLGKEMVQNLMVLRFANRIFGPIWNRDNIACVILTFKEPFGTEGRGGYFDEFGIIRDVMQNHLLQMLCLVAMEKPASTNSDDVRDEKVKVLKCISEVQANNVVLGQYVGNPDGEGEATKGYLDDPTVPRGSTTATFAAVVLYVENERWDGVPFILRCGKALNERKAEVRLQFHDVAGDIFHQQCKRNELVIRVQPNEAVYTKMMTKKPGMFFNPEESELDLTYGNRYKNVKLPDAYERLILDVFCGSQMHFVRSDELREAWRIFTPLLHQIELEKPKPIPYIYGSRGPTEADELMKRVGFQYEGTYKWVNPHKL

## NC(Cc1ccccc1)c1csc(Nc2ccc(C(=O)NCCO)cc2)n1 (stereo not drawn)
[1]
  IC50: > 29.9 µM (inactive)
[2]
  IC50: > 29.9 µM (inactive)
[3]
  EC50: 4.32 µM (active)
[4]
  EC50: > 29.9 µM (inactive)

## O=C(O)CN1C(=O)/C(=C\c2cccc(OCc3ccccc3F)c2)SC1=S
[5]
  IC50: 38.2 µM (active)

## COc1ccc2nc(O)c(CN(Cc3cccs3)Cc3nnnn3Cc3ccccc3)cc2c1
[6]
  AC50: 3.01 µM (active)
[7]
  AC50: 4.44 µM (active)
[8]
  AC50: 5.4 µM (active)
[9]
  AC50: 4.94 µM (active)

## O=C(COC(=O)c1ccc2c(c1[N+](=O)[O-])C(=O)c1ccccc1C2=O)NC1CC1
[10]
  EC50: > 150 µM (not active)
[11]
  EC50: 4.65 µM (active)
[12]
  EC50: > 150 µM (not active)
[13]
  EC50: > 150 µM (not active)
[14]
  EC50: 0.238 µM (active)
[15]
  IC50: > 80 µM (inactive)
[16]
  EC50: > 150 µM (not active)
[17]
  EC50: 9.54 µM (active)
[18]
  AC50: 3.81 µM (active)
[19]
  EC50: 17 µM (active)

## O=C(Nc1ccccc1)Nc1ccncc1
[1]
  IC50: > 29.9 µM (inactive)
[2]
  IC50: 7.05 µM (active)
[3]
  EC50: 1.02 µM (active)
[4]
  EC50: > 29.9 µM (inactive)
